Article PMC11496845, “Preparation, characterization, and in vitro cytogenotoxic evaluation of a novel dimenhydrinate-β-cyclodextrin inclusion complex” (Biomolecules and Biomedicine, 2024)
Marks after values point to notes of the source that are not given here.

How the values were obtained:
PBMCs [1] = experiment: Alkaline comet assay, tail intensity; assay type: cell-based, human; conditions: 3 h
Description: (§1) Blood was collected by venipuncture into heparinized vacutainers (BD Vacutainer Systems, Plymouth, UK), stored at room temperature, protected from light, and processed within 2 h. PBMCs were isolated by density gradient centrifugation (400 × g, 30 min) with separation medium (Histopaque® - 1077). After isolation, PBMCs were stained with Trypan blue and counted using a hemocytometer.
The comet assay is a sensitive technique for measuring DNA damage at the level of the individual eukaryotic cell. It is based upon the fact that denatured cleaved DNA fragments, or damaged DNA, migrate out of the cell at a different rate during electrophoresis than undamaged DNA [32]. Damaged DNA creates a “comet tail,” while the undamaged DNA remains within the cell membrane creating the “comet head.” The Comet assay is most commonly run under alkaline conditions to detect single and double-stranded DNA breaks.
PBMCs were isolated as previously described and then cultivated in PB-MAX™ Karyotyping Medium and incubated for 24 h at 37 ^∘C. […] Positive and negative controls were also set up equally. Treated cells were incubated at 37 ^∘C for 3 h and then centrifuged at 800 rpm (120 × g) for 5 min. The supernatant was removed and the cells were subsequently resuspended.
In a tube containing 120 µL of 0.7% LMPA, 80 µL of the sample was added for each tested concentration and controls. Prepared samples were applied to slides precoated with a 1% NMPA and covered with coverslips. After gel polymerization, coverslips were removed and slides were immersed in lysis buffer overnight at 4 ^∘C. Afterward, slides were washed with distilled water and placed into the electrophoresis tank with an electrophoresis solution (200 mM Na2EDTA, 10 M NaOH, and distilled water, pH > 13) for 20 min, followed by 20 min of electrophoresis (1 V/cm). After electrophoresis, slides were gently rinsed in the following sequences: phosphate-buffered saline (PBS) for 5 min, 70% (V/V) ethanol for 5 min, and finally 96% (V/V) ethanol for 15 min.
Prior to the fluorescent microscope analysis (U-MNU2; Olympus BX51, Tokyo, Japan), slides were rehydrated and stained with DAPI (1 µg/mL). DNA damage in treated cells was evaluated using Comet Assay IV software (Instem LSS Ltd., Staffordshire, UK), by measuring tail intensity (TI%), the percent of DNA in the tail of comets. For each concentration, as well as for positive and negative controls, at least 200 comets were analyzed. The Minimum Information for Reporting Comet Assay (MIRCA) protocol was used to report the results.

PBMCs [2] = experiment: Cytokinesis block micronucleus cytome (CBMN-cyt) assay; assay type: cell-based, human; design: Total MNi (mean ± SD) / BN cells with MNi (mean ± SD) / NBUDs (mean ± SD) / NPBs (mean ± SD): unit not given here
Source text: DNA damage events were scored specifically in once-divided binucleated (BN) cells and included micronuclei (MNi), a biomarker of chromosome breakage and/or whole chromosome loss, nucleoplasmic bridges (NPBs), a biomarker of DNA misrepair and/or telomere end-fusions, and nuclear buds (NBUDs), a biomarker of elimination of amplified DNA and/or DNA repair complexes. Cytostatic and cytotoxic effects were examined by calculating the nuclear division index (NDI) and nuclear division cytotoxicity index (NDCI) based on the proportion of mono-, bi-, and multinucleated cells and necrotic and/or apoptotic cell ratios, respectively.
Whole blood, 400 µL per each treatment, was cultured in PB-MAX™ Karyotyping Medium for 72 h at 37 ^∘C. […] Untreated cultures were set up as negative controls. Cytochalasin B was added to the final concentration of 4.5 µg/mL to block cytokinesis.
After the cultivation period, cultures were centrifuged for 10 min at 1000 rpm (188 × g) and subjected to hypotonic treatment with 0.56% KCl and centrifuged immediately after the hypotonic addition. Hypotonic treatment was followed by three fixations in ice-cold glacial acetic acid + ethanol (1:3) fresh fixative. The fixed lymphocyte solution was dropped on coded microscope slides. Air-dried slides were stained in 5% Giemsa for 7 min. […] Frequencies of mononuclear, binuclear, trinuclear, and quadrinuclear cells, as well as apoptotic and necrotic cells, were scored in a total number of at least 500 cells. All genotoxicity and cytotoxicity parameters were recognized according to the criteria given by Fenech.

[3] = MTT assay, cell viability; conditions: male, human, peripheral blood mononuclear cells (PBMCs)
Description: as §1
(§2) The MTT assay is regarded as a sensitive and reliable colorimetric assay to quantify cellular viability, proliferation, and activation. It is based on the ability of mitochondrial nicotinamide adenine dinucleotide phosphate (NADPH)-dependent cellular oxidoreductase enzymes present in viable cells to reduce soluble tetrazolium salt (3-[4,5-dimethylthiazol-2-yl]-2,5 diphenyl tetrazolium bromide) to insoluble, colored formazan compounds [26].
(§3) The MTT assay was conducted in triplicate in the 96-well plate, with two technical replicates. The seeding density was 6.25 × 10^3 cells per well.
(§4) After 72 h of incubation, the reagent MTT was added to samples for 3 h at 37 ^∘C. DMSO was added to solubilize the formazan crystals followed by further incubation for 30 and 60 min at 37 ^∘C. The optical density was measured at 570 nm using the multiplate reader Multi-Scan FC (Thermo Fisher Scientific, USA). The cell viability was determined according to (5): (5) [drawing 5]

HEK293 cells = test system: HEK293 cells; design: method as in earlier work; conditions: cited from earlier work
human PBMCs = experiment: MTT assay, cell viability; conditions: human PBMCs, 72 h, 36.36–109.09 ng/mL
Description: as §1, §2, §3, §4

[4] = β-CD […] (w/w), 25 mg DMH/mL of water
Description: Phase solubility studies were performed according to the Higuchi and Connors’ method [21]. […] Sample solutions were prepared as described by Hindija et al. [22]. […] Each measurement was run in triplicate.
Phase solubility studies, where the change of drug solubility corresponds to CD concentration, were conducted to assess the binding characteristics of the drug and CD and to determine the values of stability constant (Ks), complexation efficacy (CE), and utility number (UCD).
The utility number (UCD) is expressed as: (4) [drawing 4] where mD and mCD are the drug dose and workable amount of CD in mg, respectively, while MWD and MWCD stand for molecular weights of D and CD [22].

MDA-MB-231 cancer cells = conditions: cited from earlier work
HeLa cells = test system: HeLa cells; design: method as in PMID 19616959; conditions: cited from earlier work
mouse retinal cells = test system: mouse retinal cells; design: method as in PMID 33803405; conditions: cited from earlier work
[5] = test system: endothelial (HUVEC) cells; conditions: cited from earlier work
Calu-3 cells = test system: Calu-3 cells; design: method as in PMID 18160169; conditions: cited from earlier work
LO2 cells = test system: LO2 cells; design: method as in PMID 26256188; conditions: cited from earlier work
HCT-116 cancer cells = conditions: cited from earlier work

O=c1[nH]cc(F)c(=O)[nH]1 [5-FU, 5-fluorouracil]
Genotoxic effects in alkaline comet assay (PBMCs [1]): genotoxic effects were observed
Tail intensity (mean ± SD) (PBMCs [1]; 5-FU 100 µg/mL): 5.93 ± 0.23%
BN cells with MNi (mean ± SD) (PBMCs [2]; positive control): 19 ± 6.56
NBUDs (mean ± SD) (PBMCs [2]; positive control): 3.5 ± 1.92
NDCI, nuclear division cytotoxicity index (mean ± SD) (PBMCs [2]; positive control): 1.577 ± 0.01
NDI, nuclear division index (mean ± SD) (PBMCs [2]; positive control): 1.612 ± 0.01
NPBs (mean ± SD) (PBMCs [2]; positive control): 1 ± 0.82
Total MNi (mean ± SD) (PBMCs [2]; positive control): 19.25 ± 6.65
viability at 72 h, 100 µg/mL [3]: 64.8%

CN(C)CCOC(c1ccccc1)c1ccccc1.Cn1c(=O)c2[nH]c(Cl)nc2n(C)c1=O [DMH, 2-benzhydryloxy-N,N-dimethylethanamine; 8-chloro-1,3-dimethyl-7H-purine-2,6-dione]
Effect on cell viability (HEK293 cells): may slightly affect the viability
NBUDs (mean ± SD) (PBMCs [2]; DMH 72.73 ng/mL): 0.75 ± 0.96^s
NPBs (mean ± SD) (PBMCs [2]; DMH 72.73 ng/mL): 0.25 ± 0.5
Total MNi (mean ± SD) (PBMCs [2]; DMH 72.73 ng/mL, BN cells): 4.25 ± 0.96^r, s
NBUDs (mean ± SD) (PBMCs [2]; DMH 90.91 ng/mL): 1.75 ± 1.26^s
NPBs (mean ± SD) (PBMCs [2]; DMH 90.91 ng/mL): 0.25 ± 0.5
Total MNi (mean ± SD) (PBMCs [2]; DMH 90.91 ng/mL, BN cells): 6.5 ± 1.92^s
NBUDs (mean ± SD) (PBMCs [2]; DMH 109.09 ng/mL): 1 ± 0.82^s
NPBs (mean ± SD) (PBMCs [2]; DMH 109.09 ng/mL): 0.25 ± 0.5
Total MNi (mean ± SD) (PBMCs [2]; DMH 109.09 ng/mL, BN cells): 6.5 ± 2.38^s
Difference in cell viability versus negative control (Tukey–Kramer) (human PBMCs): no statistically significant differences
UCD, utility number [4]: 1.156

OC[C@H]1O[C@@H]2O[C@H]3[C@H](O)[C@@H](O)[C@@H](O[C@H]4[C@H](O)[C@@H](O)[C@@H](O[C@H]5[C@H](O)[C@@H](O)[C@@H](O[C@H]6[C@H](O)[C@@H](O)[C@@H](O[C@H]7[C@H](O)[C@@H](O)[C@@H](O[C@H]8[C@H](O)[C@@H](O)[C@@H](O[C@H]1[C@H](O)[C@H]2O)O[C@@H]8CO)O[C@@H]7CO)O[C@@H]6CO)O[C@@H]5CO)O[C@@H]4CO)O[C@@H]3CO [β-CD, β-cyclodextrin]
Effect on cell viability (MDA-MB-231 cancer cells): does not affect cell viability
Tail intensity (mean ± SD) (PBMCs [1]; concentration of β-CD 250 ng/mL): 3.02 ± 1.45%
Tail intensity (mean ± SD) (PBMCs [1]; concentration of β-CD 500 ng/mL): 3.22 ± 1.09%
Tail intensity (mean ± SD) (PBMCs [1]; concentration of β-CD 750 ng/mL): 3.25 ± 1.02%
Tail intensity (mean ± SD) (PBMCs [1]; concentration of β-CD 1000 ng/mL): 3.42 ± 1.08%
Effect on cell viability (HeLa cells): does not affect cell viability
Effect on cell viability (mouse retinal cells): does not affect cell viability
Effect on cell viability [5]: does not affect cell viability
Effect on cell viability (Calu-3 cells): does not affect cell viability
viability at 72 h, 1000 ng/mL [3]: 90.3%
Effect on cell viability (LO2 cells): does not affect cell viability
Effect on cell viability (HCT-116 cancer cells): does not affect cell viability
